The test system of this assay is Ebola virus. On the set-up: species or system mice. As to conditions: mouse, in vivo.

This note sets out measurements from US8207209B2, “Methods of inhibiting viral infection” (priority 2007, dated 2012).

With `Cc1cc(NCCCN(C)C)c2ccc3c(ccc4c(NCCCN(C)C)cc(C)nc43)c2n1.Cl.Cl.Cl.Cl` [Compound 365, Quino[8,7-h]quinoline-1,7-diamine,N,N′-bis[3-(dimethylamino)propyl]-3,9-dimethyl-tetrahydrochloride], the protection was found to be 100%.

Consider `N=C(N)c1ccc2oc(C=Cc3nc4ccc(C(=N)N)cc4[nH]3)cc2c1` [Compound 723, 2-[2-(5-carbamimidoyl-benzofuran-2-yl)-vinyl]-3H-benzoimidazole-5-carboxamidine], for which the “effectiveness of single dose 4 days after challenge” value is on record as “effectiveness”.
